In brackets after ≈: the same amount, converted by molar mass. Activity calls are given as the source filed them. No cut-off for these calls is given here.
Experiments:
[1] = target: T1, Interleukin-1 receptor-associated kinase 4 (Homo sapiens, UniProt Q9NWZ3); assay: Inhibition of IRAK4 (unknown origin) in presence of 5 mM ATP by enzymatic assay
T1 sequence (Q9NWZ3 whole entry): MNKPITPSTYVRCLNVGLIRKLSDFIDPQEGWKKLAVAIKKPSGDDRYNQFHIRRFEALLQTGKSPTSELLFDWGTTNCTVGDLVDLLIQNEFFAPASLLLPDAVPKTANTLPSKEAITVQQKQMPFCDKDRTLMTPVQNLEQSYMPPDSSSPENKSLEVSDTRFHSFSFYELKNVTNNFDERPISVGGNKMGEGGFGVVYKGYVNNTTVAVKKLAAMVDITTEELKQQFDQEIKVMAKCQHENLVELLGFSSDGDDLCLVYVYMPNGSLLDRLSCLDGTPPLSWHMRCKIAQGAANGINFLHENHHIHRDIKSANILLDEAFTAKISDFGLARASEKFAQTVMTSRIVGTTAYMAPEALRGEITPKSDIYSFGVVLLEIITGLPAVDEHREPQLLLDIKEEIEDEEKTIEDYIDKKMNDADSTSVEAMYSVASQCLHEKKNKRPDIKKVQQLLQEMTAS

[2] = target: T1, Interleukin-1 receptor-associated kinase 4; assay: Inhibition of IRAK4 (unknown origin) by cell based assay
[3] = Lipophilicity, logD of the compound at pH 7.4 by shake-flask assay; type: physicochemical; settings: buffer
[4] = Intrinsic clearance in human hepatocytes assessed per million cells; type: ADME, cell-based, Hepatocyte; settings: read-out: CLH
[5] = Intrinsic clearance in rat hepatocytes assessed per million cells; type: ADME, cell-based, Hepatocyte; settings: read-out: CLH
[6] = Intrinsic permeability in human Caco2 cells; type: ADME, cell-based; settings: Caco-2
[7] = Efflux ratio in human Caco2 cells; type: ADME, cell-based; settings: Caco-2
[8] = target: T2, Interleukin-1 receptor-associated kinase 4 (Homo sapiens) (UniProt Q9NWZ3); assay: Inhibition of IRAK4 (unknown origin) at 0.1 uM relative to control
T2 sequence (whole entry): T1 sequence (Q9NWZ3 whole entry)

[9] = target: T3, Interleukin-1 receptor-associated kinase 1 (Homo sapiens, UniProt P51617); assay: Inhibition of IRAK1 (unknown origin) at 0.1 uM relative to control
Target sequence in this assay (P51617 whole entry, looked up): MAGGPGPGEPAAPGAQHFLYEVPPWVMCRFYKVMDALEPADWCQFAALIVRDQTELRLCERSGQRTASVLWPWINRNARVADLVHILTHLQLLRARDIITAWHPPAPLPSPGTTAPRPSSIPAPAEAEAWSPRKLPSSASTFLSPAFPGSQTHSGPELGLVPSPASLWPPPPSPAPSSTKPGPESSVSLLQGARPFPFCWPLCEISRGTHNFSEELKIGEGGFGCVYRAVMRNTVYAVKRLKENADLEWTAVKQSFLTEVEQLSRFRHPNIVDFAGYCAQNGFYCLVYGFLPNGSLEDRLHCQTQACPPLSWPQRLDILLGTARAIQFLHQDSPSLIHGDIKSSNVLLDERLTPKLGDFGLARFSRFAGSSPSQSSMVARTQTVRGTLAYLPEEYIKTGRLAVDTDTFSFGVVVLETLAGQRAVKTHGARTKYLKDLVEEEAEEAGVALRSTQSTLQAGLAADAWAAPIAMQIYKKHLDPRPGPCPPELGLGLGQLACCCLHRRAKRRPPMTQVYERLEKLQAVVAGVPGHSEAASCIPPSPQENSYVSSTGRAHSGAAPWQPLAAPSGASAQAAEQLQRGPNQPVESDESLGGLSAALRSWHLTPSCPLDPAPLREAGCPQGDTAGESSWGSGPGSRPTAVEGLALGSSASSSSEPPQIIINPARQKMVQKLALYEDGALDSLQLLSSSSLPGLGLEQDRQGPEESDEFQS

[10] = target: T3, Interleukin-1 receptor-associated kinase 1; assay: Inhibition of IRAK1 (unknown origin)
Target sequence in this assay (P51617 whole entry): as the sequence (P51617 whole entry, looked up) above

[11] = target: Dual specificity protein kinase CLK1 (Homo sapiens, UniProt P49759); assay: Inhibition of human recombinant CLK1 expressed in Escherichia coli
Dual specificity protein kinase CLK1, sequence (P49759 whole entry): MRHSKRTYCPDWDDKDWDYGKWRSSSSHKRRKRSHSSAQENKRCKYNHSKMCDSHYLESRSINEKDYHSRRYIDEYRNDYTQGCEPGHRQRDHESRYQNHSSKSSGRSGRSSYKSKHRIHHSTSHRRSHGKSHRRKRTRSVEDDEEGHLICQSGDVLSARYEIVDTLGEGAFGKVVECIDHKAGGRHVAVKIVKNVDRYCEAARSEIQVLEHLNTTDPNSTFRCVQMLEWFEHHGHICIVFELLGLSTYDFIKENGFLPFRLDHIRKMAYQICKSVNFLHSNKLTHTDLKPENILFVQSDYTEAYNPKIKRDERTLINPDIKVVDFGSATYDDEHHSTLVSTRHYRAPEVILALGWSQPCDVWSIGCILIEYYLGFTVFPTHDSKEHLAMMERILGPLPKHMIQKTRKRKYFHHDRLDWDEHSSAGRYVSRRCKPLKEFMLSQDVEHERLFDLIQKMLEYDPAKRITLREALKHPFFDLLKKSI

[12] = target: Dual specificity protein kinase CLK2 (Homo sapiens, UniProt P49760); assay: Inhibition of human recombinant CLK2 expressed in Baculovirus system
Dual specificity protein kinase CLK2, sequence (P49760 whole entry): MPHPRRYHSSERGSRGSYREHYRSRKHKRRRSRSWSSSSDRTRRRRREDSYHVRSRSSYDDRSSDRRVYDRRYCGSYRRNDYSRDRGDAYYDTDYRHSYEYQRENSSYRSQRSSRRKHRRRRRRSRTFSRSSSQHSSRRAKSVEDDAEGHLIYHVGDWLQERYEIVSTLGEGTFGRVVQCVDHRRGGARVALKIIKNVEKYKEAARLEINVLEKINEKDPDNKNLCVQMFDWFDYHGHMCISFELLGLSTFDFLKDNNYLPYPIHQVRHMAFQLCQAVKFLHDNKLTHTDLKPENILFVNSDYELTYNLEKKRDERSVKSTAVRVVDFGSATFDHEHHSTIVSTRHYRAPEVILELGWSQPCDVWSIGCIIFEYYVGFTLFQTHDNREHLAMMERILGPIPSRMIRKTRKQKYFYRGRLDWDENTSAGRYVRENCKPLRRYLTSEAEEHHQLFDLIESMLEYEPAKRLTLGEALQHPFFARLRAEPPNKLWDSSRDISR

[13] = target: Dual specificity protein kinase CLK3 (Homo sapiens, UniProt P49761); assay: Inhibition of human recombinant CLK3 expressed in Baculovirus system
Dual specificity protein kinase CLK3, sequence (P49761 whole entry): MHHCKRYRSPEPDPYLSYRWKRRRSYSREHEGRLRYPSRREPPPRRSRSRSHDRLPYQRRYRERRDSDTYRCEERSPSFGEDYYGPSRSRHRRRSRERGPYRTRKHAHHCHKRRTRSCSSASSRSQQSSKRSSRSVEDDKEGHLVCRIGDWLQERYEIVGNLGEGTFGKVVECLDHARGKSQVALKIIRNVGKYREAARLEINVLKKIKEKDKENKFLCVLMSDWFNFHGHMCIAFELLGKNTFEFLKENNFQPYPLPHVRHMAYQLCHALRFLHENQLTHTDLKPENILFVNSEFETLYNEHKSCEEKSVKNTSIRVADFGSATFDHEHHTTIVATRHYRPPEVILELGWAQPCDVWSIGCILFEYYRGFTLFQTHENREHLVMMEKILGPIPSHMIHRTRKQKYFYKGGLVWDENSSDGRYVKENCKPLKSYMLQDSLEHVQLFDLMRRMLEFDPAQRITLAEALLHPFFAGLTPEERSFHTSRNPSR

[14] = target: Dual specificity protein kinase CLK4 (Homo sapiens, UniProt Q9HAZ1); assay: Inhibition of human recombinant CLK4 expressed in Baculovirus system
Dual specificity protein kinase CLK4, sequence (Q9HAZ1 whole entry): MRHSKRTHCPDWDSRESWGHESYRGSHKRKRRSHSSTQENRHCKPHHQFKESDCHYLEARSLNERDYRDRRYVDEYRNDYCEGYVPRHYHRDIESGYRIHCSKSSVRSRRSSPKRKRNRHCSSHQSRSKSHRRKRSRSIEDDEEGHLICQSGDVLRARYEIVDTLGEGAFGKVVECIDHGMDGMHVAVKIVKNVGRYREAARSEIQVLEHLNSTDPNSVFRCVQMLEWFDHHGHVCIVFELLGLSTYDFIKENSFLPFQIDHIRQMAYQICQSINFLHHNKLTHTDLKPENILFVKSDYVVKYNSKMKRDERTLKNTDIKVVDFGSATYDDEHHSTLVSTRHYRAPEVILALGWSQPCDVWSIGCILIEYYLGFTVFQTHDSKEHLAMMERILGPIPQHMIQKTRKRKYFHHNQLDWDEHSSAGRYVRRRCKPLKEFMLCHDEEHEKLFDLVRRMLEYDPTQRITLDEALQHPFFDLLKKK

[15] = target: Cyclin-dependent kinase 7 (Homo sapiens, UniProt P50613); assay: Inhibition of CDK7 (unknown origin)
Cyclin-dependent kinase 7, sequence (P50613 whole entry): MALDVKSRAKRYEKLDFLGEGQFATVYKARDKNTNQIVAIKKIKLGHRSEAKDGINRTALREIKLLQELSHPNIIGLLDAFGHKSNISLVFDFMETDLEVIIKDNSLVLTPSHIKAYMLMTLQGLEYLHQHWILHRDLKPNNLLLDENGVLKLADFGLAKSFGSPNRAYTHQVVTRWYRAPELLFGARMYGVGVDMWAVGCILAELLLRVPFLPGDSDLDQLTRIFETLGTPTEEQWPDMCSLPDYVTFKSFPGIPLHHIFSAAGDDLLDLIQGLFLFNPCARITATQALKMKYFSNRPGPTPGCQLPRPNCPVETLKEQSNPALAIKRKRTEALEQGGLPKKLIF

CDK8/Cyclin C = CDK8/Cyclin C (Homo sapiens, UniProt P49336); assay: Inhibition of human recombinant CDK8/cyclinC expressed in Baculovirus system
CDK8/Cyclin C, sequence (P49336 whole entry): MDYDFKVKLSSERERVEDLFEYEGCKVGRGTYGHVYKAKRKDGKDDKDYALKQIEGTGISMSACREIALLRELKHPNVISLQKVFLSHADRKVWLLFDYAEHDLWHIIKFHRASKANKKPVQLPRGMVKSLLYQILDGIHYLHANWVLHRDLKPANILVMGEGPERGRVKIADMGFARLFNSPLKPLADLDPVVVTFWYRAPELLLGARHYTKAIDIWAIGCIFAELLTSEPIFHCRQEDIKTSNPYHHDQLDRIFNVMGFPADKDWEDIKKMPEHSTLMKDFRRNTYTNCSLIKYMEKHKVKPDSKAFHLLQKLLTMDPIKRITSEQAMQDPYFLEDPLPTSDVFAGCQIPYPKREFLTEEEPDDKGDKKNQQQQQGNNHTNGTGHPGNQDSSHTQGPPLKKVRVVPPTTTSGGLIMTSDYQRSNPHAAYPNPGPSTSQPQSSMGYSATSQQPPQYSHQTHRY
CDK8/Cyclin C, sequence (P24863 whole entry, further chain): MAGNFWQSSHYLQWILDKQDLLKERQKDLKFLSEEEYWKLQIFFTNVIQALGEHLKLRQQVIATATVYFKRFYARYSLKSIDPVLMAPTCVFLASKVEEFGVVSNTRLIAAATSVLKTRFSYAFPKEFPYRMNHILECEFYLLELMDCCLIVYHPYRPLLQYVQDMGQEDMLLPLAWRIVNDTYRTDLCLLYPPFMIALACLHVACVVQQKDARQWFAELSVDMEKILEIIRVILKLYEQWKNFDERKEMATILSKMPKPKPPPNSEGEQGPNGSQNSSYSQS

[16] = target: Cyclin-dependent kinase 9 (Homo sapiens, UniProt P50750); assay: Inhibition of CDK9 (unknown origin)
Cyclin-dependent kinase 9, sequence (P50750 whole entry): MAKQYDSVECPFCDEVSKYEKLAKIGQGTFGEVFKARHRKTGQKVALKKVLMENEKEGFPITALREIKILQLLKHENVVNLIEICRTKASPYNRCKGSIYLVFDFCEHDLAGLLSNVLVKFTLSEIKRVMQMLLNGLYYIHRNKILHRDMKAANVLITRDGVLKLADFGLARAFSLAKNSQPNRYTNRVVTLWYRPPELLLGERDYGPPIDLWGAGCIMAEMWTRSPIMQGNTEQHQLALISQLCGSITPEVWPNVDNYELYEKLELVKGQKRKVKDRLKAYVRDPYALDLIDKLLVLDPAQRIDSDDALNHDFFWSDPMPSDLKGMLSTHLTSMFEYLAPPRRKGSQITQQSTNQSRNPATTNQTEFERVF

Homo sapiens [17] = species: Homo sapiens; assay: Selectivity index, ratio of IC50 for inhibition of IRAK1 (unknown origin) to IC50 for inhibition of IRAK4 (unknown origin) in presence of 5 mM ATP by enzymatic assay
Homo sapiens [18] = species: Homo sapiens; assay: Selectivity index, ratio of IC50 for inhibition of human recombinant CLK1 expressed in Escherichia coli to IC50 for inhibition of IRAK4 (unknown origin) in presence of 5 mM ATP by enzymatic assay
Homo sapiens [19] = species: Homo sapiens; assay: Selectivity index, ratio of IC50 for inhibition of human recombinant CLK2 expressed in Baculovirus system to IC50 for inhibition of IRAK4 (unknown origin) in presence of 5 mM ATP by enzymatic assay
Homo sapiens [20] = species: Homo sapiens; assay: Selectivity index, ratio of IC50 for inhibition of human recombinant CLK3 expressed in Baculovirus system to IC50 for inhibition of IRAK4 (unknown origin) in presence of 5 mM ATP by enzymatic assay
Homo sapiens [21] = species: Homo sapiens; assay: Selectivity index, ratio of IC50 for inhibition of human recombinant CLK4 expressed in Baculovirus system to IC50 for inhibition of IRAK4 (unknown origin) in presence of 5 mM ATP by enzymatic assay
Homo sapiens [22] = species: Homo sapiens; assay: Selectivity index, ratio of IC50 for inhibition of CDK7 (unknown origin) to IC50 for inhibition of IRAK4 (unknown origin) in presence of 5 mM ATP by enzymatic assay
Homo sapiens [23] = species: Homo sapiens; assay: Selectivity index, ratio of IC50 for inhibition of human recombinant CDK8/cyclinC expressed in Baculovirus system to IC50 for inhibition of IRAK4 (unknown origin) in presence of 5 mM ATP by enzymatic assay
Homo sapiens [24] = species: Homo sapiens; assay: Selectivity index, ratio of IC50 for inhibition of CDK9 (unknown origin) to IC50 for inhibition of IRAK4 (unknown origin) in presence of 5 mM ATP by enzymatic assay
[25] = target: T2, Interleukin-1 receptor-associated kinase 4 (Homo sapiens); assay: Inhibition of IRAK4 in human OCI-LY10 cells assessed as decrease in pIKBalpha levels at 0.3 uM in presence of 3 nM ibrutinib incubated for 14 hrs by Western blotting analysis relative to control; type: cell-based
[26] = Unbound fraction in rat plasma at 37 degC by equilibrium dialysis; type: ADME, cell-free
[27] = Unbound fraction in mouse plasma at 37 degC by equilibrium dialysis; type: ADME, cell-free
[28] = Unbound fraction in human plasma at 37 degC by equilibrium dialysis; type: ADME, cell-free
[29] = Plasma clearance in Han Wistar rat at 1 mg/kg, iv; type: ADME, organism-based
[30] = Volume of distribution at steady state in Han Wistar rat at 1 mg/kg, iv; type: ADME, organism-based; settings: in vivo, read-out: Vdss
[31] = Oral bioavailability in Han Wistar rat at 2 mg/kg; type: ADME, organism-based; settings: in vivo
[32] = AUC in SCID mouse at 50 mg/kg, po; type: ADME, organism-based; settings: in vivo
[33] = Aqueous solubility in pH 7.4 phosphate buffer; type: physicochemical
OCI-Ly10 [34] = assay: Growth inhibition of human OCI-LY10 cells at 10 uM incubated for 3 days by Alamar blue dye based fluorescence assay (reference value: 3%); type: functional; settings: OCI-Ly10, 72 h, read-out: GI
OCI-Ly10 [35] = assay: Growth inhibition of human OCI-LY10 cells at 3.3 uM incubated for 3 days by Alamar blue dye based fluorescence assay (reference value: 3%); type: functional; settings: OCI-Ly10, 72 h, read-out: GI
OCI-Ly10 [36] = assay: Growth inhibition of human OCI-LY10 cells at 1.7 uM incubated for 3 days by Alamar blue dye based fluorescence assay (reference value: 3%); type: functional; settings: OCI-Ly10, 72 h, read-out: GI
OCI-Ly10 [37] = assay: Growth inhibition of human OCI-LY10 cells at 0.33 uM incubated for 3 days by Alamar blue dye based fluorescence assay (reference value: 3%); type: functional; settings: OCI-Ly10, 72 h, read-out: GI
OCI-Ly10 [38] = assay: Growth inhibition of human OCI-LY10 cells at 0.13 uM incubated for 3 days by Alamar blue dye based fluorescence assay (reference value: 3%); type: functional; settings: OCI-Ly10, 72 h, read-out: GI
OCI-LY19 [39] = assay: Growth inhibition of human OCI-LY19 cells at 10 uM incubated for 3 days by Alamar blue dye based fluorescence assay (reference value: 3%); type: functional; settings: OCI-LY19, 72 h, read-out: GI
OCI-LY19 [40] = assay: Growth inhibition of human OCI-LY19 cells at 3.3 uM incubated for 3 days by Alamar blue dye based fluorescence assay (reference value: 3%); type: functional; settings: OCI-LY19, 72 h, read-out: GI
OCI-LY19 [41] = assay: Growth inhibition of human OCI-LY19 cells at 1.7 uM incubated for 3 days by Alamar blue dye based fluorescence assay (reference value: 3%); type: functional; settings: OCI-LY19, 72 h, read-out: GI
OCI-LY19 [42] = assay: Growth inhibition of human OCI-LY19 cells at 0.33 uM incubated for 3 days by Alamar blue dye based fluorescence assay (reference value: 3%); type: functional; settings: OCI-LY19, 72 h, read-out: GI
OCI-LY19 [43] = assay: Growth inhibition of human OCI-LY19 cells at 0.13 uM incubated for 3 days by Alamar blue dye based fluorescence assay (reference value: 3%); type: functional; settings: OCI-LY19, 72 h, read-out: GI
OCI-Ly10 [44] = assay: Antitumor activity against human OCI-LY10 cells xenografted in CB.17 SCID mouse assessed as inhibition of tumor growth at 100 mg/kg, po QD dosed 34 days after tumor cell inoculation; type: functional, organism-based
OCI-Ly10 [45] = assay: Antitumor activity against human OCI-LY10 cells xenografted in CB.17 SCID mouse assessed as induction of tumor regression at 100 mg/kg, po QD dosed 34 days after tumor cell inoculation and co-treated with 12 mg/kg, po QD ibrutinib; type: functional, organism-based

COC(=O)N1CCN([C@H]2CC[C@H](Nc3nc(Nc4cnn(C)c4)nc4ccc(CC#N)nc34)CC2)CC1
IC50 [1]: 0.004 µM | IC50 [2]: 0.046 µM | logD [3]: 2.3 | hepatocyte CLint [4]: 10 µL/min/1e6 cells | hepatocyte CLint [5]: 10 µL/min/1e6 cells | Papp [6]: 9.3 ×10⁻⁶ cm/s | efflux ratio [7]: 24 | inhibition [8]: 104% | inhibition [9]: 70% | IC50 [10]: 0.027 µM | IC50 [11]: 3.1 µM | IC50 [12]: 1.4 µM | IC50 [13]: > 10 µM | IC50 [14]: 1 µM | IC50 [15]: 17 µM | IC50 (CDK8/Cyclin C): > 10 µM | IC50 [16]: 13 µM | Ratio IC50 (Homo sapiens [17]): 6.8 | Ratio IC50 (Homo sapiens [18]): 775 | Ratio IC50 (Homo sapiens [19]): 350 | Ratio IC50 (Homo sapiens [20]): > 2500 | Ratio IC50 (Homo sapiens [21]): 250 | Ratio IC50 (Homo sapiens [22]): 4250 | Ratio IC50 (Homo sapiens [23]): > 2500 | Ratio IC50 (Homo sapiens [24]): 3250 | inhibition [25]: 100% | fraction unbound [26]: 0.23 | fraction unbound [27]: 0.44 | fraction unbound [28]: 0.3 | clearance [29]: 25 mL/min/kg | Vd [30]: 4.5 L/kg | bioavailability [31]: 10% | AUC [32]: 23 µM·h | solubility [33]: 29 µM (≈ 14.6 µg/mL) | inhibition of growth at 10 µM (OCI-Ly10 [34]): 82% | inhibition of growth at 3.3 µM (OCI-Ly10 [35]): 44% | inhibition of growth at 1.7 µM (OCI-Ly10 [36]): 25% | inhibition of growth at 0.33 µM (OCI-Ly10 [37]): 12% | inhibition of growth at 0.13 µM (OCI-Ly10 [38]): 8% | inhibition of growth at 10 µM (OCI-LY19 [39]): 88% | inhibition of growth at 3.3 µM (OCI-LY19 [40]): 50% | inhibition of growth at 1.7 µM (OCI-LY19 [41]): 31% | inhibition of growth at 0.33 µM (OCI-LY19 [42]): 10% | inhibition of growth at 0.13 µM (OCI-LY19 [43]): 6% | TGI (OCI-Ly10 [44]): Active | Activity (OCI-Ly10 [45]): Active

Source: ChEMBL document CHEMBL4321825, “Discovery of a Series of 5-Azaquinazolines as Orally Efficacious IRAK4 Inhibitors Targeting MyD88L265P Mutant Diffuse Large B Cell Lymphoma” (J Med Chem, 2019)
